# Data as given in ChEMBL document CHEMBL1201861, “Genomics of Drug Sensitity in Cancer screening data, Wellcome Trust Sanger Institute”.
# Assays:
# Experiment in all cases: cells
# [1] = system: COLO-741; type: functional, cell-based, Homo sapiens; conditions: Homo sapiens, COLO-741
# Description: SANGER: Inhibition of human COLO-741 cell growth in a cell viability assay.
# [2] = system: COLO-800; type: functional, cell-based, Homo sapiens; conditions: Homo sapiens, COLO-800;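 further: growth inhibition of COLO-800 cells, read out with a cell viability assay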
# Description: SANGER: Inhibition of human COLO-800 cell growth in a cell viability assay.
# [3] = system: CTV-1; type: functional, cell-based; conditions: Homo sapiens;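 further: growth inhibition of the cell line, read out with a cell viability assay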
# Description: SANGER: Inhibition of human CTV-1 cell growth in a cell viability assay.
# [4] = system: ChaGo-K-1; type: functional, cell-based; conditions: Homo sapiens;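 further: growth inhibition of ChaGo-K-1 cells, read out with a cell viability assay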
# Description: SANGER: Inhibition of human ChaGo-K-1 cell growth in a cell viability assay.
# [5] = system: DJM-1; type: functional, cell-based, Homo sapiens; conditions: Homo sapiens, DJM-1;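 further: growth inhibition of human DJM-1 cells, read out by a cell viability assay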
# Description: SANGER: Inhibition of human DJM-1 cell growth in a cell viability assay.
# [6] = system: DSH1; type: functional, cell-based, Homo sapiens; conditions: Homo sapiens, DSH1;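 further: growth inhibition of human DSH1 cells, measured with a cell viability readout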
# Description: SANGER: Inhibition of human DSH1 cell growth in a cell viability assay.
# [7] = system: Detroit 562; type: functional, cell-based, Homo sapiens; conditions: Homo sapiens, Detroit 562;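 further: growth inhibition of human Detroit 562 cells, read out by a cell viability assay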
# Description: SANGER: Inhibition of human Detroit562 cell growth in a cell viability assay.
# [8] = system: EFO-21; type: functional, cell-based, Homo sapiens; conditions: Homo sapiens, EFO-21;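 further: growth inhibition of EFO-21 cells measured with a viability assay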
# Description: SANGER: Inhibition of human EFO-21 cell growth in a cell viability assay.
# [9] = system: EW-1; type: functional, cell-based, Homo sapiens; conditions: Homo sapiens, EW-1;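 further: growth inhibition of the human EW-1 cell line, read out by a cell viability assay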
# Description: SANGER: Inhibition of human EW-1 cell growth in a cell viability assay.
# [10] = system: EOL1; type: functional, cell-based; conditions: Homo sapiens;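 further: growth inhibition of EoL-1 cells, read out by a cell viability assay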
# Description: SANGER: Inhibition of human EoL-1-cell cell growth in a cell viability assay.
# [11] = system: FTC-133; type: functional, cell-based, Homo sapiens; conditions: Homo sapiens, FTC-133
# [12] = system: G-401; type: functional, cell-based, Homo sapiens; conditions: Homo sapiens, G-401
# Description: SANGER: Inhibition of human G-401 cell growth in a cell viability assay.
# [13] = system: GMS-10; type: functional, cell-based, Homo sapiens; conditions: Homo sapiens, GMS-10;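 further: growth inhibition of GMS-10 cells, read out as cell viability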
# Description: SANGER: Inhibition of human GMS-10 cell growth in a cell viability assay.
# [14] = system: H4; type: functional, cell-based; conditions: Homo sapiens
# Description: SANGER: Inhibition of human H4 cell growth in a cell viability assay.
# [15] = system: HAL-01; type: functional, cell-based; conditions: Homo sapiens;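 further: growth inhibition of human HAL-01 cells, read out with a cell viability assay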
# Description: SANGER: Inhibition of human HAL-01 cell growth in a cell viability assay.
# [16] = system: HCC 2998; type: functional, cell-based, Homo sapiens; conditions: Homo sapiens, HCC 2998;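 further: growth inhibition of human HCC2998 cells, measured with a cell viability read-out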
# Description: SANGER: Inhibition of human HCC2998 cell growth in a cell viability assay.
# [17] = system: HCC38; type: functional, cell-based, Homo sapiens; conditions: Homo sapiens, HCC38;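 further: cell viability assay on the human HCC38 cell line, with IC50 marking the concentration that inhibits cell growth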
# Description: SANGER: Inhibition of human HCC38 cell growth in a cell viability assay.
# [18] = system: HDLM-2; type: functional, cell-based; conditions: Homo sapiens;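 further: cell viability assay measuring suppression of HDLM-2 proliferation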
# Description: SANGER: Inhibition of human HDLM-2 cell growth in a cell viability assay.
# [19] = system: HOP-92; type: functional, cell-based, Homo sapiens; conditions: Homo sapiens, HOP-92;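 further: cell viability readout, with IC50 reflecting inhibition of HOP-92 cell growth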
# Description: SANGER: Inhibition of human HOP-92 cell growth in a cell viability assay.
# [20] = system: HT-29; type: functional, cell-based, Homo sapiens; conditions: Homo sapiens, HT-29;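 further: growth inhibition of human HT-29 cells, read out by a cell viability assay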
# Description: SANGER: Inhibition of human HT-29 cell growth in a cell viability assay.
# [21] = system: HTC-C3; type: functional, cell-based, Homo sapiens; conditions: Homo sapiens, HTC-C3;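 further: inhibition of cell growth, read out with a cell viability assay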
# Description: SANGER: Inhibition of human HTC-C3 cell growth in a cell viability assay.
# [22] = system: HuP-T4; type: functional, cell-based, Homo sapiens; conditions: Homo sapiens, HuP-T4;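 further: cell viability assay measuring how much HuP-T4 cell growth is inhibited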
# Description: SANGER: Inhibition of human HuP-T4 cell growth in a cell viability assay.
# [23] = system: IST-SL1; type: functional, cell-based, Homo sapiens; conditions: Homo sapiens, IST-SL1;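 further: growth inhibition of human IST-SL1 cells, read out with a cell viability assay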
# Description: SANGER: Inhibition of human IST-SL1 cell growth in a cell viability assay.
# [24] = system: KURAMOCHI; type: functional, cell-based; conditions: Homo sapiens;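 further: growth inhibition of KURAMOCHI cells, read out with a cell viability assay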
# Description: SANGER: Inhibition of human KURAMOCHI cell growth in a cell viability assay.
# [25] = system: KY821; type: functional, cell-based; conditions: Homo sapiens;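 further: growth inhibition of human KY821 cells, read out by a cell viability assay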
# Description: SANGER: Inhibition of human KY821 cell growth in a cell viability assay.
# [26] = system: LCLC-103H cell line; type: functional, cell-based, Homo sapiens; conditions: Homo sapiens, LCLC-103H
# Description: SANGER: Inhibition of human LCLC-103H cell growth in a cell viability assay.
# [27] = system: LN-405; type: functional, cell-based, Homo sapiens; conditions: Homo sapiens, LN-405
# Description: SANGER: Inhibition of human LN-405 cell growth in a cell viability assay.
# [28] = system: MDA-MB-361; type: functional, cell-based, Homo sapiens; conditions: Homo sapiens, MDA-MB-361
# [29] = system: ME-180; type: functional, cell-based; conditions: Homo sapiens;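 further: cell viability assay measuring growth inhibition of ME-180 cells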
# Description: SANGER: Inhibition of human ME-180 cell growth in a cell viability assay.
# [30] = system: NB69; type: functional, cell-based, Homo sapiens; conditions: Homo sapiens, NB69;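 further: growth inhibition of NB69 cells, determined by a cell viability assay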
# Description: SANGER: Inhibition of human NB69 cell growth in a cell viability assay.
# [31] = system: NCI-H1395; type: functional, cell-based, Homo sapiens; conditions: Homo sapiens, NCI-H1395;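 further: cell viability assay read-out quantifying reduced proliferation of human NCI-H1395 cells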
# Description: SANGER: Inhibition of human NCI-H1395 cell growth in a cell viability assay.
# [32] = system: NCI-H2122; type: functional, cell-based, Homo sapiens; conditions: Homo sapiens, NCI-H2122;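 further: growth inhibition of the cells, read out with a cell viability assay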
# Description: SANGER: Inhibition of human NCI-H2122 cell growth in a cell viability assay.
# [33] = system: NCI-H510A; type: functional, cell-based; conditions: Homo sapiens;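 further: growth inhibition of NCI-H510A cells, read out with a cell viability assay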
# Description: SANGER: Inhibition of human NCI-H510A cell growth in a cell viability assay.
# [34] = system: NCI-H650; type: functional, cell-based, Homo sapiens; conditions: Homo sapiens, NCI-H650;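 further: growth inhibition of NCI-H650 cells, read out by a viability assay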
# Description: SANGER: Inhibition of human NCI-H650 cell growth in a cell viability assay.
# [35] = system: SNU1; type: functional, cell-based; conditions: Homo sapiens;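 further: growth inhibition of human NCI-SNU-1 cells, measured with a cell viability assay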
# Description: SANGER: Inhibition of human NCI-SNU-1 cell growth in a cell viability assay.
# [36] = system: NEC8; type: functional, cell-based, Homo sapiens; conditions: Homo sapiens, NEC8;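 further: growth inhibition of human NEC8 cells, read out by a cell viability assay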
# Description: SANGER: Inhibition of human NEC8 cell growth in a cell viability assay.
# [37] = system: NKM-1; type: functional, cell-based; conditions: Homo sapiens;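 further: growth inhibition of NKM-1 cells, read out with a cell viability assay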
# Description: SANGER: Inhibition of human NKM-1 cell growth in a cell viability assay.
# [38] = system: OMC-1; type: functional, cell-based, Homo sapiens; conditions: Homo sapiens, OMC-1;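 further: growth inhibition of the OMC-1 cell line, measured by a cell viability assay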
# Description: SANGER: Inhibition of human OMC-1 cell growth in a cell viability assay.
# [39] = system: OS-RC-2; type: functional, cell-based, Homo sapiens; conditions: Homo sapiens, OS-RC-2;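 further: growth inhibition of human OS-RC-2 cells, measured by a cell viability assay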
# Description: SANGER: Inhibition of human OS-RC-2 cell growth in a cell viability assay.
# [40] = system: OVCAR-8; type: functional, cell-based, Homo sapiens; conditions: Homo sapiens, OVCAR-8;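 further: growth inhibition of human OVCAR-8 cells, read out by a cell viability assay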
# Description: SANGER: Inhibition of human OVCAR-8 cell growth in a cell viability assay.
# [41] = system: QIMR-WIL; type: functional, cell-based; conditions: Homo sapiens;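 further: growth inhibition of QIMR-WIL cells, read out with a cell viability assay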
# Description: SANGER: Inhibition of human QIMR-WIL cell growth in a cell viability assay.
# [42] = system: RMG-I; type: functional, cell-based, Homo sapiens; conditions: Homo sapiens, RMG-I;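 further: growth inhibition of human RMG-I cells, read out with a cell viability assay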
# Description: SANGER: Inhibition of human RMG-I cell growth in a cell viability assay.
# [43] = system: SK-N-AS; type: functional, cell-based, Homo sapiens; conditions: Homo sapiens, SK-N-AS;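 further: growth inhibition of human SK-N-AS cells, measured with a cell viability assay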
# Description: SANGER: Inhibition of human SK-N-AS cell growth in a cell viability assay.
# [44] = system: SK-N-FI; type: functional, cell-based, Homo sapiens; conditions: Homo sapiens, SK-N-FI;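 further: cell viability assay measuring growth inhibition of human SK-N-FI cells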
# Description: SANGER: Inhibition of human SK-N-FI cell growth in a cell viability assay.
# [45] = system: BV-173; type: functional, cell-based; conditions: Homo sapiens
# Description: SANGER: Inhibition of human BV-173 cell growth in a cell viability assay.
# [46] = system: TE-5; type: functional, cell-based, Homo sapiens; conditions: Homo sapiens, TE-5;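 further: inhibition of cell growth, read out by a cell viability assay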
# Description: SANGER: Inhibition of human TE-5 cell growth in a cell viability assay.
# [47] = system: TGW; type: functional, cell-based; conditions: Homo sapiens;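 further: growth inhibition of human TGW cells, read out with a cell viability assay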
# Description: SANGER: Inhibition of human TGW cell growth in a cell viability assay.
# [48] = system: no-11; type: functional, cell-based, Homo sapiens; conditions: Homo sapiens;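 further: growth inhibition of human NO-11 cells, read out with a cell viability assay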
# Description: SANGER: Inhibition of human no-11 cell growth in a cell viability assay.
# [49] = system: CCRF-CEM; type: functional, cell-based; conditions: Homo sapiens;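 further: inhibition of CCRF-CEM cell growth, measured by a cell viability assay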
# Description: SANGER: Inhibition of human CCRF-CEM cell growth in a cell viability assay.
# [50] = system: CGTH-W-1; type: functional, cell-based, Homo sapiens; conditions: Homo sapiens, CGTH-W-1;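 further: growth inhibition of human CGTH-W-1 cells measured by cell viability assay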
# Description: SANGER: Inhibition of human CGTH-W-1 cell growth in a cell viability assay.
# [51] = system: COLO-679; type: functional, cell-based, Homo sapiens; conditions: Homo sapiens, COLO-679
# Description: SANGER: Inhibition of human COLO-679 cell growth in a cell viability assay.
# [52] = system: COLO-680N; type: functional, cell-based, Homo sapiens; conditions: Homo sapiens, COLO-680N;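 further: cell viability assay used to measure inhibition of COLO-680N cell growth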
# Description: SANGER: Inhibition of human COLO-680N cell growth in a cell viability assay.
# [53] = system: COLO-684; type: functional, cell-based; conditions: Homo sapiens
# Description: SANGER: Inhibition of human COLO-684 cell growth in a cell viability assay.
compound,measurement,setting,value
COc1cc([C@@H]2c3cc4c(cc3[C@@H](O[C@@H]3O[C@@H]5CO[C@@H](C)O[C@H]5[C@H](O)[C@H]3O)[C@H]3COC(=O)[C@H]23)OCO4)cc(OC)c1O [ETOPOSIDE],IC50,[1],> 16000 nM
same,IC50,[2],2100 nM
same,IC50,[3],410 nM
same,IC50,[4],3790 nM
same,IC50,[5],203 nM
same,IC50,[6],2360 nM
same,IC50,[7],11100 nM
same,IC50,[8],11900 nM
same,IC50,[9],1460 nM
same,IC50,[10],302 nM
same,IC50,[11],3590 nM
same,IC50,[12],1440 nM
same,IC50,[13],> 16000 nM
same,IC50,[14],297 nM
same,IC50,[15],3800 nM
same,IC50,[16],1260 nM
same,IC50,[17],2270 nM
same,IC50,[18],13800 nM
same,IC50,[19],5020 nM
same,IC50,[20],1980 nM
same,IC50,[21],> 16000 nM
same,IC50,[22],1450 nM
same,IC50,[23],> 16000 nM
same,IC50,[24],699 nM
same,IC50,[25],> 16000 nM
same,IC50,[26],651 nM
same,IC50,[27],> 16000 nM
same,IC50,[28],> 16000 nM
same,IC50,[29],824 nM
same,IC50,[30],1090 nM
same,IC50,[31],> 16000 nM
same,IC50,[32],5390 nM
same,IC50,[33],8650 nM
same,IC50,[34],1710 nM
same,IC50,[35],1750 nM
same,IC50,[36],539 nM
same,IC50,[37],425 nM
same,IC50,[38],> 16000 nM
same,IC50,[39],11200 nM
same,IC50,[40],1090 nM
same,IC50,[41],155 nM
same,IC50,[42],> 16000 nM
same,IC50,[43],> 16000 nM
same,IC50,[44],> 16000 nM
same,IC50,[45],5050 nM
same,IC50,[46],1180 nM
same,IC50,[47],> 16000 nM
same,IC50,[48],7560 nM
same,IC50,[49],170 nM
same,IC50,[50],57.4 nM
same,IC50,[51],163 nM
same,IC50,[52],8260 nM
same,IC50,[53],> 16000 nM
CN(c1ncccc1CNc1nc(Nc2ccc3c(c2)CC(=O)N3)ncc1C(F)(F)F)S(C)(=O)=O [PF-00562271],IC50,[1],> 2560 nM
same,IC50,[2],> 2560 nM
same,IC50,[3],> 2560 nM
same,IC50,[4],> 2560 nM
same,IC50,[5],> 2560 nM
same,IC50,[6],> 2560 nM
same,IC50,[7],1350 nM
same,IC50,[8],> 2560 nM
same,IC50,[9],> 2560 nM
same,IC50,[10],> 2560 nM
same,IC50,[11],> 2560 nM
same,IC50,[12],> 2560 nM
same,IC50,[13],> 2560 nM
same,IC50,[14],> 2560 nM
same,IC50,[15],> 2560 nM
same,IC50,[16],> 2560 nM
same,IC50,[17],> 2560 nM
same,IC50,[18],> 2560 nM
same,IC50,[19],2310 nM
same,IC50,[20],> 2560 nM
same,IC50,[21],> 2560 nM
same,IC50,[22],> 2560 nM
same,IC50,[23],> 2560 nM
same,IC50,[24],> 2560 nM
same,IC50,[25],> 2560 nM
same,IC50,[26],1560 nM
same,IC50,[27],> 2560 nM
same,IC50,[28],> 2560 nM
same,IC50,[29],> 2560 nM
same,IC50,[30],> 2560 nM
same,IC50,[31],> 2560 nM
same,IC50,[32],> 2560 nM
same,IC50,[33],> 2560 nM
same,IC50,[34],832 nM
same,IC50,[35],> 2560 nM
same,IC50,[36],> 2560 nM
same,IC50,[37],1280 nM
same,IC50,[38],> 2560 nM
same,IC50,[39],> 2560 nM
same,IC50,[40],> 2560 nM
same,IC50,[41],> 2560 nM
same,IC50,[42],> 2560 nM
same,IC50,[43],> 2560 nM
same,IC50,[44],> 2560 nM
same,IC50,[45],> 2560 nM
same,IC50,[46],> 2560 nM
same,IC50,[47],> 2560 nM
same,IC50,[48],> 2560 nM
same,IC50,[49],> 2560 nM
same,IC50,[50],1620 nM
same,IC50,[51],> 2560 nM
same,IC50,[52],> 2560 nM
same,IC50,[53],> 2560 nM
